# Data published in article PMC6062138, “2,4-Diaminothieno[3,2-d]pyrimidines, a new class of anthelmintic with activity against adult and egg stages of whipworm” (PLoS Neglected Tropical Diseases, 2018).
# Read-outs that look alike come from different tables or passages of the source.
# Key:
# [1] = test system: CMT-93 rectal epithelial cells; test: Neutral red cytotoxicity assay; assay type: cell-based; conditions: Mus musculus, CMT93; CMT-93 cells, 72 hours, max 100 μM, n = 8, 95% confidence interval in parentheses
# Description: (§1) The mouse rectal epithelial cell line CMT-93 (LGC Promochem, Teddington, United Kingdom) was used for these studies. The WST-8 and neutral red cytotoxicity assays were performed as described. Briefly, cells were cultured with test compounds, chlorpromazine positive control or DMSO alone (final compound concentrations of 0 to 100 μM) for 72 hours. The WST-8 assay was then carried out using the Cell Counting Kit– 8 (Sigma Aldrich # 96992) with an incubation time of 2 hours. This time was chosen according to the manufacturer’s instructions and was such that the absorbance of the WST-8 formazan dye was within the linear range of the microplate reader. Following this assay, the medium was exchanged, and the ability of the cells to take up the dye neutral red (concentration 33 μg/mL, incubation time 2 hours) was determined using a microplate reader (absorbance at 540 nm). Results were analysed using GraphPad Prism and fitted using a log-logistic model.
# [2] = test system: CMT-93 rectal epithelial cells; test: WST-8 cytotoxicity assay; assay type: cell-based; conditions: Mus musculus, CMT93; CMT-93 cells, 72 hours, max 100 μM, n = 8, 95% confidence interval in parentheses
# Description: as §1
# [3] = test system: embryonated T. muris eggs; test: In vitro hatching of compound-soaked embryonated eggs in E. coli culture; design: species or system Trichuris muris; conditions: eggs soaked 14 days at 100 μM, then 24 hours in E. coli culture at 37°C
# Description: (§2) 100 infective embryonated eggs were incubated in deionised water with 1% v/v DMSO or test compounds at a final concentration of 100 μM in 1% v/v DMSO for 14 days at room temperature in the dark. Eggs were then washed and resuspended in deionised water. For in vitro hatching assays 100 eggs were added to 1 mL of E. coli bacterial culture grown in LB broth overnight at 37°C shaking at 200 rpm. Egg-bacterial cultures were incubated for 24 hours at 37°C, 5% CO2 and hatching determined following blinding by visual examination under a dissecting microscope. For in vivo hatching assays, 40 eggs were counted under a dissecting microscope and given to a SCID mouse in 200 μL water. At day 15 post-infection mice were culled and the number of L2 larvae present in the caecae and colon enumerated in a blinded manner under a dissecting microscope.
# ex vivo T. muris adults [4] = test: T. muris ex vivo adult motility (paralysis) assay; design: species or system Trichuris muris; conditions: for EC50: Trichuris muris; for Activity in hit confirmation and expansion motility screen: library material (DMSO solution), 100μM
# Description: T. muris worms were cultured using severe combined immune deficiency (SCID) mice, at the Biological Services Facility at the University of Manchester. Male and female mice were infected with 200 infective embryonated T. muris eggs via oral gavage. Thirty-five days later, the mice were sacrificed. Adult T. muris were obtained from the intestine as previously described. Worms were maintained in Roswell Park Memorial Institute (RPMI) 1640 media supplemented with penicillin (500 U/mL) and streptomycin (500 μg/mL) at approximately 37°C and studied on the same day.
# Individual adult worms were added to wells containing 75 μL of RPMI-1640 medium, penicillin (500 U/mL), streptomycin (500 μg/mL) plus 1% v/v final concentration of dimethylsulfoxide (DMSO) or compound dissolved in DMSO. Plates were incubated at 37°C, 5% CO2. Motility was determined after 24 hours.
# An automated system was used to quantify worm movement. An earlier version of this system has been previously described. Two hundred frame movies of the whole plate were recorded at 10 frames per second and then motility determined by an algorithm based on thresholding pixel variance over time. For the hit confirmation and expansion assays, library material was used at a final concentration of 100μM. Dose-response curves were calculated with the four factor log-logistic model using the R package drc or using GraphPad Prism.
# C. elegans N2 [5] = test: C. elegans growth assay; design: species or system Caenorhabditis elegans; conditions: synchronised L1, 5 days at 20°C, EC50 estimate ± standard error
# Description: A mixed-stage C. elegans N2 population was obtained by liquid culture (20°C) according to standard methods. It was then bleached to obtain an egg population with 1.5 mL 4M NaOH, 2.4 mL NaOCl, 2.1 mL water, washed three times, and allowed to hatch in 50 mL S-basal buffer at 20°C overnight to obtain a synchronised L1 population. For the growth assay, 49 μL of S-complete buffer and 1 μL of DMSO or DMSO plus compound were added to each well of 96-well plates. 50 μL of a worm suspension (approximately 20 synchronised L1 worms, 1% w/v E. coli HB101 in S-complete buffer) were then added to each well. Plates were incubated at 20°C before imaging 5 days later. Worm movement was stimulated by inserting and removing a 96-well PCR plate into/from the wells of the assay plate, and then whole plate 200 frame movies were recorded at 30 frames per second. Growth was quantified as a correlate of movement using the same automated system described earlier, which estimates movement for each well by categorising pixels as imaging movement if their variance is greater the mean plus one standard deviation of the variances of all the pixels on the plate.
# [6] = test system: embryonated T. muris eggs; test: In vivo hatching and infection establishment of treated eggs in SCID mice; design: species or system Trichuris muris in SCID mice; conditions: eggs soaked 14 days in 100 μM; SCID mice given 40 eggs; L2 larvae counted day 15 post infection; batch normalised to DMSO
# Description: as §2
# The experiment was conducted in two ‘experimental batches’. For batch one there were 5 mice in each of the DMSO and OX02926 groups. For batch two there were 9 mice in each of the DMSO and OX02926 groups. The raw data (number of worms that established infection in each mouse) are shown separated by batch and treatment in the S1 Fig.
# To analyse the data we used a two-way ANOVA (worm number ~ treatment * batch). […] There was no significant interaction between treatment and batch [F(1,24) = 0.296, P = 0.59153]. […]
# C. elegans N2 [7] = test system: C. elegans N2; design: method as in PMID 29223747; conditions: read-out: EC50 C. elegans growth assay; cited from earlier work
# ex vivo T. muris adults [8] = conditions: read-out: EC50 T. muris paralysis assay; cited from earlier work
# T. trichiura = conditions: cited from earlier work; for Cure rate, T. trichiura infection: single dose; for Cure rate against whipworm: single doses as used in MDA, no reference given
# [9] = design: method as in PMID 25370471, PMID 26787751; conditions: solid tumors; cited from earlier work
# [10] = test system: unembryonated T. muris eggs; test: Embryonation assay; design: species or system Trichuris muris; conditions: for Percentage of unembryonated eggs compared to the DMSO control: duration of embryonation (56–60 days)
# Description: One hundred unembryonated eggs were treated with water, 1% v/v DMSO in water or test compounds at a final concentration of 100 μM (unless stated) with 1% v/v DMSO, in the dark at 26°C, either for 56 days or for shorter periods as described. Images were collected on an Olympus BX63 upright microscope using a 60x / 1.42 PlanApo N (Oil) objective and captured and white-balanced using an DP80 camera (Olympus) in monochrome mode through CellSens Dimension v1.16 (Olympus). Images were then processed and analysed using the image analysis platform Fiji.
# [11] = shown for comparison in Table 1, read-out: Adult Trichuris paralysis assay EC50
EC50 (ex vivo T. muris adults [4]; [11]),"EC50 (C. elegans N2 [5]; Caenorhabditis elegans, 120 h)",Structure (SMILES),EC50 [1],EC50 [2],Activity in hit confirmation and expansion motility screen (ex vivo T. muris adults [4]),EC50 (ex vivo T. muris adults [8]),also measured
27 µM,82 ± 37 µM,"COCCNc1nc(NCCOc2ccccc2Cl)c2sccc2n1 [OX02926, N^4-(2-(2-Chlorophenoxy)ethyl)-N^2-(2-methoxyethyl)thieno[3,2-d]pyrimidine-2,4-diamine]",21 µM,43 µM,confirmed this activity,–,"In vitro hatching of treated embryonated eggs compared to DMSO control [3]: significant decrease; EC50 (ex vivo T. muris adults [4]; equivalent of 27μM, read-out: EC50 adult whipworm motility assay, mass equivalent): 10.2 µg/mL; EC50 (C. elegans N2 [5]): 87 ± 37 µM; melting point: 69 to 97 °C; Reduction of the burden of worms in vivo [6]: ~40%"
> 80 µM,7 ± 1 µM,"COc1ccccc1CNc1nc(NCCOc2ccccc2Cl)c2sccc2n1 [OX03143, N^4-(2-(2-chlorophenoxy)ethyl)-N^2-(2-methoxybenzyl)thieno[3,2-d]pyrimidine-2,4-diamine]",5 µM,15 µM,active,–,–
–,–,c1ccc([C@H]2CN3CCSC3=N2)cc1 [Levamisole],–,–,–,8 ± 3 µM,EC50 (C. elegans N2 [7]): 5 ± 1 µM
–,–,COC(=O)Nc1nc2ccc(C(=O)c3ccccc3)cc2[nH]1 [Mebendazole],–,–,–,> 600 µM,"Cure rate, T. trichiura infection (T. trichiura): 36%; Cure rate against whipworm (T. trichiura): less than 40%; EC50 (C. elegans N2 [7]): 1.1 ± 0.2 µM"
–,–,Cc1c(CN2CCN(C(=O)[C@H](C)O)CC2)sc2c(N3CCOCC3)nc(-c3cnc(N)nc3)nc12 [apitolisib],–,–,–,–,Tolerability in Phase I trials [9]: tolerated
–,–,CCCSc1ccc2nc(NC(=O)OC)[nH]c2c1 [Albendazole],–,–,–,> 800 µM,"Cure rate, T. trichiura infection (T. trichiura): 28%; Cure rate against whipworm (T. trichiura): less than 40%"
–,–,Cc1ccc(CN2C(=O)COCc3cc(-c4ccncc4)ccc32)cc1 [OX02983],–,–,–,50 ± 13 µM,–
47 µM,82 ± 9 µM,"CNc1nc(NCCOc2ccccc2)c2sccc2n1 [OX02925, N^2-Methyl-N^4-(2-phenoxyethyl)thieno[3,2-d]pyrimidine-2,4-diamine]",29 µM,75 µM,active,–,"Percentage of unembryonated eggs compared to the DMSO control ([10]; 100 μM, 26°C): significant increase"
44 µM,11 ± 2 µM,"CNc1nc(NCCOc2ccccc2Cl)c2sccc2n1 [OX03147, N^4-(2-(2-chlorophenoxy)ethyl)-N^2-methylthieno[3,2-d]pyrimidine-2,4-diamine]",21 µM,37 µM,active,–,"Larval length after shortened exposure ([10]; 100 μM, 26°C, 2–4 week and 4–6 week groups): not affected; Percentage of unembryonated eggs compared to the DMSO control ([10]; 100 μM, 26°C): significant increase; Larval length after shortened exposure ([10]; 100 μM, 26°C, soaking weeks 0–3, P = 0.0076 vs DMSO): clear larval stunting; Proportion of unembryonated eggs after shortened exposure ([10]; 100 μM, 26°C, weeks 0–2, 0–3, 2–4 or 4–6 of embryonation): no increase; Morphology of L1 larvae within the egg after shortened exposure ([10]; 100 μM, 26°C, weeks 0–3, 2–4 or 4–6): clear morphological alterations; Drug dose at which increased number of unembryonated eggs was detected ([10]; concentration response, both 26°C and room temperature, 56 days): 100 µM; Effect on egg morphology / larval length at low concentration ([10]; concentrations as low as 1 μM, 26°C, 56 days): significant larval stunting"
–,–,"CS(=O)(=O)N1CCN(Cc2cc3nc(-c4cccc5[nH]ncc45)nc(N4CCOCC4)c3s2)CC1 [Pictilisib, pictilisib]",–,–,–,–,Tolerability in Phase I trials [9]: tolerated
